Results taken from US9896512B2, “Antitumor peptide derived from a complementarity determining region of a humanized monoclonal antibody to NAP12B transporter” (Recepta Biopharma S.A., priority 2010, dated 2018).
Entries after “also recorded” stand apart in the source; their conditions may differ. No end group written: not given here.

Experiments:
tumor cells = test: Cell adherence assay (detachment with trypsin/EDTA); format: cell-based; conditions: for adherence at peptide concentration of 1 mM (not suspended by trypsin/EDTA): 1 mM peptide; for adherence of tumor cells to the substrate: 96-well plates, RPMI 10% FCS, seen in B16F10-Nex2.1, U87MG, A5028 melanoma, SKBR3, SiHa, HCT cells
Method: At a lower dose, cells would be detached with trypsin/EDTA at rates inversely proportional to the peptide concentration. Conceivably, peptides RB9 and RB10 affected the cytoskeleton dynamics of cells, thus signaling increased cell adhesion.
B16F10-Nex2.1 cells (5×10^3) and U87-MG cells (1×10^4) were cultivated in 96-well plates and incubated with different concentrations of RB9 (SEQ ID NO: 8) and RB10 (SEQ ID NO: 9) from 0.01 to 1 mM (i.e., 0.01, 0.05, 0.1, 0.25, 0.7, 0.8 and 1 mM of RB9 and RB10 for B16F10-Nex 2.1 cells; and 0.25, 0.5, 0.75 and 1 mM of RB9 and RB10 for U87-MG cells). After 18 hours incubation, viable cells detached with trypsin/EDTA were counted using Trypan blue exclusion staining. All assays were performed in triplicate in two independent experiments.
SKBR3 cells (1×10^4) were cultivated in 96-well plates and incubated with RB9 (SEQ ID NO: 8) and RB10 (SEQ ID NO: 9). After 18 hours incubation, viable cells detached with trypsin/EDTA were counted using Trypan blue exclusion staining. Assays were performed in triplicate in two independent experiments. The A2058 human melanoma cells (1×10^4) were incubated for 4 hours at 37° C. in a humidified chamber with 5% CO2. Fresh media containing different peptide concentrations of RB9 and RB10 ranging from 0 to 1 mM (i.e., 0, 0.25, 0.5 and 1 mM) was added to the wells and incubated for 24 hours. The media was then aspirated, cells were detached with 30 μl/well of trypsin-EDTA for five minutes at 37° C. and viable cells were counted in a Neubauer chamber using Trypan blue. As shown in FIGS. 2A-2D, 50% of cells were trypsin-EDTA resistant at 630 and 610 μM RB9 and RB10, respectively.

[1] = Peptide degradation by human plasma (HPLC / mass spectrum); format: in vitro ADME
Method: (§1) Peptides have variable half lives in the plasma due to the proteolytic activity and the renal filtration, which are relevant aspects in the pharmacokinetics of drug candidates.
To analyze the peptide in HPLC and Mass Spectrum, an aliquot of 200 μL was transferred to a new Eppendorf tube and proteins were precipitated with 20 μL trifluoroacetic acid for 5 minutes at 4° C. After centrifugation for 10 minutes at 14,000 rpm, the supernatant was analyzed in an LC/ESI-MS (Waters).
Regarding assays for determining time-lapse plasma degradation of RB9 peptide, peptide degradation by human plasma was monitored in HPLC and Mass spectra every 30 minutes as described above (FIG. 12). About 50% RB9 was cleaved after 2 hours of incubation at 37° C.

[2] = test system: human ovary cancer OVCAR-3 cells; test: Cell migration, wound healing assay; format: cell-based; conditions: peptide 500 μM, 24 hours
Method: (§2) For the migration studies, 5×10^5 or 10^6 cells were distributed on 6-well plates and let them to adhere for 2 hours at 37° C./5% CO2. The culture medium was changed and the peptide was added at 500 μM overnight. The cell monolayer was “wounded” with a P1000 tip and incubated for 24 hours. Images of untreated cells (control) and peptide treated cells were captured with a JENOPTIK camera. Cell numbers (nuclei) were determined using the Pixcavator software version 5.0.

[3] = test system: human colon cancer HCT cells; test: Cell migration, wound healing assay; format: cell-based; conditions: peptide 500 μM, 24 hours
Method: as §2

[4] = test system: human breast cancer SKBr-3 cells; test: Cell migration, wound healing assay; format: cell-based; conditions: peptide 500 μM, 24 hours
Method: as §2

[5] = test system: human melanoma A2058 cells; test: Cell migration, wound healing assay; format: cell-based; conditions: peptide 500 μM, 24 hours
Method: as §2

[6] = test system: T75 primary human fibroblasts; test: Cell migration, wound healing assay; format: cell-based; conditions: normal non-tumorigenic cells
Method: as §2

3T3 murine fibroblasts = test: Cell migration, wound healing assay; format: cell-based; conditions: normal non-tumorigenic cells
Method: as §2

[7] = test system: FibroRP primary human fibroblasts; test: Cell migration, wound healing assay; format: cell-based; conditions: normal non-tumorigenic cells
Method: as §2

[8] = In vivo peptide toxicity evaluation (histopathology); set-up: species or system mice; conditions: 300 μg via i.p., seven consecutive days
Method: Mice were injected with RB9 (SEQ ID NO: 8) for seven consecutive days (300 μg via i.p.) and were sacrificed thereafter for histopathology. […] Also the peptides were not hemolytic as shown in FIG. 21 for RB10M3 (SEQ ID NO: 31).

Solubility comparison = format: physicochemical
Excerpt: as §1

[9] = test system: melanoma B16F10-Nex2 cells; test: Alanine scanning series cell adhesion assay (MTT after trypsin-EDTA); format: cell-based, murine; conditions: 1 mM peptide, 24 hours
Method: The peptide RB10 (SEQ ID NO: 9) was engineered to replace each amino acid by alanine using Ala-scan methodology, and thus help evaluate the role of each amino acid on biological effect, specifically on the hyper-adherence observed with 1 mM peptide.
For this purpose, viable melanoma B16F10-Nex2 cells (1×10^4)/well were distributed on a 96-well culture plate and incubated for 4 hours. Fresh media containing 1 mM of the alanine-scanning series for RB10 was added and incubated for 24 hours. Treated cells were detached with 30 μl/well of trypsin-EDTA for five minutes at 37° C. and gently washed with PBS. Cells were incubated for 4 hours with 0.5 mg/mL of MTT [3-(4,5-Dimethylthiazol-2-yl)-2,5-diphenyltetrazolium bromide] in fresh media and the formazan crystals were solubilized adding 1 volume of a 10% SDS solution overnight. Intensity was measured using a plate reader at 570 nm. […] The 100% value for each peptide represented the treated cells that had not been trypsinized.

[10] = test system: human cervix cancer HeLa cells; test: Cell migration, wound healing assay; format: cell-based; conditions: peptide 500 μM, 24 hours
Method: as §2

B16F10-Nex2 cells = test: Growth inhibition (cell number by image analysis); format: cell-based, murine
Method: Viable B16F10-Nex2 cells (5×10^5)/well were distributed on a 6-well culture plate and incubated for 4 hours. Fresh medium containing 0 or 500 μM of RB10 ([…]) was added to the wells and incubated for 12 hours. Image was captured using a camera (Jenoptik) with the software Progres 2.8. The number of cells was detected using the software pixcavator (intelligent perception). After 12 hours with 0.5 mM of RB10, melanoma cells had fewer cells by 39% (FIG. 15); these cells were still able to proliferate but not to migrate. […] Magnification ×100.

C[C@@H]1NC(=O)[C@H](CCCNC(=N)N)NC(=O)[C@H](C)NC(=O)[C@H]([C@@H](C)O)NC(=O)[C@H](CCC(=O)O)NC(=O)CNC(=O)[C@H](CCCNC(=N)N)NC(=O)[C@H](C)NC(=O)[C@@H](N)CSSC[C@@H](C(N)=O)NC(=O)CNC(=O)[C@H](CCC(N)=O)NC(=O)CNC(=O)[C@H](Cc2c[nH]c3ccccc23)NC(=O)[C@H](Cc2ccc(O)cc2)NC(=O)[C@H](C)NC(=O)[C@H](Cc2ccccc2)NC(=O)[C@H]([C@@H](C)O)NC1=O [RB9, CARGETARATFAYWGQGC-NH2]
adherence at peptide concentration of 1 mM (not suspended by trypsin/EDTA) (tumor cells): hyper-adherence | adherence of tumor cells to the substrate (tumor cells): dose dependent increase of adherence | degradation in human plasma at 24 hours ([1]; 24 hours, 37° C.): whole peptide was degraded; also recorded: total degradation | peptide cleaved / degraded in human plasma ([1]; after 2 hours of incubation at 37° C.): 50% | metabolised at 2 h, 1.67 mg/mL ([1]; human, human plasma, after 2 hours of incubation at 37° C., read-out: peptide cleaved / degraded in human plasma): ~50% | inhibition of cell migration [2]: half inhibited; also recorded: partial inhibition | inhibition of cell migration [3]: completely inhibited; also recorded: partial inhibition | inhibition of cell migration [4]: completely inhibited; also recorded: complete inhibition | inhibition of cell migration [5]: completely inhibited; also recorded: complete inhibition | inhibition of cell migration [6]: did not affect; also recorded: non-inhibition | inhibition of cell migration (3T3 murine fibroblasts): did not affect; also recorded: non-inhibition | inhibition of cell migration [7]: did not affect; also recorded: non-inhibition | toxicity, morphological alterations in liver, lung, heart, kidney and spleen [8]: No signs of toxicity or morphological alterations | solubility (comparison) (Solubility comparison): more soluble than RB10

CARGETARATFAYWGQG-NH2 [RB10, CARGETARATFAYWGQG-NH2]
adherence at peptide concentration of 1 mM (not suspended by trypsin/EDTA) (tumor cells): hyper-adherence | adherence of tumor cells to the substrate (tumor cells): dose dependent increase of adherence | trypsin/EDTA-resistant cell adherence [9]: high trypsin/EDTA-resistant cell adherence | inhibition of cell migration [10]: complete or almost complete inhibition | fewer cells than control (B16F10-Nex2 cells; 0.5 mM, 12 hours): 39% | inhibition of growth (B16F10-Nex2 cells; 12 hours incubation): partial inhibition
